From ChEMBL document CHEMBL1201862, “PubChem BioAssay data set” (2004)
Several values for one entry are separate records, joined by “and”; a condition that tells them apart may be missing. Identical values can stand only once. Activity calls are given as the source filed them.

Experiments:
[1] = molecular target: Beta-2 adrenergic receptor (Homo sapiens, UniProt P07550); test: beta2AR agonists driving receptor internalization, dose response, cell-based, FAP fluorogen, flow cytometry, cherry pick 1 (AID 588763); type: functional
[2] = molecular target: T1, Mannose-6-phosphate isomerase (Homo sapiens, UniProt P34949); test: human PMI inhibitors, high substrate, primary screen, biochemical, fluorescence intensity, high mannose 6-phosphate (AID 1220)
T1 sequence (P34949 whole entry): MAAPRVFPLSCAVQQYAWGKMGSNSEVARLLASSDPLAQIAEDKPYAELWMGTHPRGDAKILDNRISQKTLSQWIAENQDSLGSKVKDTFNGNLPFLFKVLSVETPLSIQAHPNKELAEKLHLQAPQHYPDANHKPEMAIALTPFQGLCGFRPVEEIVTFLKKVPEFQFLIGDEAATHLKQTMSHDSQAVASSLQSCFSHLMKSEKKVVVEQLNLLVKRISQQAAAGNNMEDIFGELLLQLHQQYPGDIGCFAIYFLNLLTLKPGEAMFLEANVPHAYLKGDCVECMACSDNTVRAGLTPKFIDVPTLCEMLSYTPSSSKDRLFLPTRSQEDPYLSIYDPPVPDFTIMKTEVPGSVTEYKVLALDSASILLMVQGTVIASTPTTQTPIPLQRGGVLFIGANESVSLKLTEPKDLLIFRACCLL

[3] = molecular target: T2, Polyadenylate-binding protein 1 (Homo sapiens, UniProt P11940); test: PABP1 MLLE–PAM2 interaction inhibitors, dose response, miRNA deadenylation inhibitor project, biochemical, fluorescence polarization, Cy5-PAM2 peptide, secondary (AID 602260); type: functional; details: read-out: IC50_Mean
[4] = molecular target: T2, Polyadenylate-binding protein 1; test: PABP1 MLLE–PAM2 binding inhibitor potency, dose response, biochemical, fluorescence polarization, FITC-PAM2 peptide (AID 602259); type: functional; details: read-out: IC50_Mean
[5] = molecular target: T3, High affinity choline transporter 1 (Homo sapiens, UniProt Q9GZV3); test: CHT inhibitors, dose response, cell-based, 5-point CRC, membrane potential dye (AID 504840); type: functional
T3 sequence (Q9GZV3 whole entry): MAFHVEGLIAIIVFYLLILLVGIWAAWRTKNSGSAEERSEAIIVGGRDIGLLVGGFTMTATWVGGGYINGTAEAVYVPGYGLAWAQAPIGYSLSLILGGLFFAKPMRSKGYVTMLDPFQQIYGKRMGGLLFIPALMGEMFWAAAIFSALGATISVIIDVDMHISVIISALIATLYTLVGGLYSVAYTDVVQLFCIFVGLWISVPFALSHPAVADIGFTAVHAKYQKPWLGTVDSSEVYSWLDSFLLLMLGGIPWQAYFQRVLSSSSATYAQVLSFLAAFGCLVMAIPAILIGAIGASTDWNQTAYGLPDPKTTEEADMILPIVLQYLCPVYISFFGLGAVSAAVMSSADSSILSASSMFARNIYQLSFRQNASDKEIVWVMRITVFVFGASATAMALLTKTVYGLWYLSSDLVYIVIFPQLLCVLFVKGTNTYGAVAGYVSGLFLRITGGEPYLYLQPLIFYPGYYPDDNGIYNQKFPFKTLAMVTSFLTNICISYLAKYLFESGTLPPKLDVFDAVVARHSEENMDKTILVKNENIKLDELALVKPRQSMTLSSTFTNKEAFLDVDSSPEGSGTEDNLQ

[6] = molecular target: T3, High affinity choline transporter 1; test: CHT inhibitors, dose response, cell-based, 10-point CRC, membrane potential dye (AID 588401); type: functional;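 also: membrane potential dye fluorescence of choline-evoked depolarization via CHT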
BJ [7] = test: cytotoxicity toward BJ-TERT fibroblasts, dose response, cell-based, RAS-independent, luminescence (AID 1933); type: functional; details: Homo sapiens
BJ [8] = test: cells; type: functional, cell-based; details: Homo sapiens
BJ [9] = test: cytotoxicity toward BJ-TERT-LT-ST fibroblasts, dose response, cell-based, RAS-independent, luminescence (AID 1935); type: functional; details: Homo sapiens;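 also: BJ fibroblasts immortalized with TERT plus LT and ST oncogenes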
[10] = cytotoxicity toward DRD oncogenic fibroblasts, dose response, cell-based, non-viral oncogenic, luminescence (AID 1934); type: functional; details: Homo sapiens
Paired box protein Pax-8 = Paired box protein Pax-8 (Homo sapiens, UniProt Q06710); test: inhibitors of PAX8-driven TPO luciferase reporter, dose response, RMG-I cells, cherry-pick (AID 687027); type: functional, cell-based;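 also: luciferase reporter driven by Pax8 target thyroperoxidase promoter measured by SteadyGlo luminescence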
[11] = non-specific cell cytotoxicity, dose response, cytotoxicity control for PAX8 inhibitor project, plate reader, dry powder samples (AID 743021); type: functional, cell-based
[12] = inhibitors of HIV Env-driven cell fusion, dose response, cherry-pick (AID 652057); type: functional, cell-based
[13] = off-target signal loss in HeLa-CEM21 co-culture – HeLa F-luc CTL cells, cherry-picked, counter-screen for HIV-1 Env fusion inhibitor project, dose response (AID 652040); type: functional, cell-based;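 also: potency for signal decrease marking cytotoxic or nonspecific inhibition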
[14] = inhibitors of clade B AD8 Env fusion, dose response, cell-based, cherry-pick (AID 652062); type: functional;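 also: luciferase signal from cell-cell fusion driven by HIV-1 clade B AD8 Env; potency is for inhibitors of fusion seen as a drop in luminescence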
[15] = molecular target: T4, Heat shock factor protein 1 (Mus musculus, UniProt P38532); test: inhibition of MG132-induced HSE-luciferase signal, confirmation, cell-based, NIH3T3, luminescence, dose retest (AID 2382); type: functional;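 also: NIH3T3 fibroblasts with HSF1-driven luciferase reporter stressed by proteasome inhibitor MG132; luminescence from HSF1-driven luciferase expression after 8 hours of MG132 stress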
T4 sequence (P38532 whole entry): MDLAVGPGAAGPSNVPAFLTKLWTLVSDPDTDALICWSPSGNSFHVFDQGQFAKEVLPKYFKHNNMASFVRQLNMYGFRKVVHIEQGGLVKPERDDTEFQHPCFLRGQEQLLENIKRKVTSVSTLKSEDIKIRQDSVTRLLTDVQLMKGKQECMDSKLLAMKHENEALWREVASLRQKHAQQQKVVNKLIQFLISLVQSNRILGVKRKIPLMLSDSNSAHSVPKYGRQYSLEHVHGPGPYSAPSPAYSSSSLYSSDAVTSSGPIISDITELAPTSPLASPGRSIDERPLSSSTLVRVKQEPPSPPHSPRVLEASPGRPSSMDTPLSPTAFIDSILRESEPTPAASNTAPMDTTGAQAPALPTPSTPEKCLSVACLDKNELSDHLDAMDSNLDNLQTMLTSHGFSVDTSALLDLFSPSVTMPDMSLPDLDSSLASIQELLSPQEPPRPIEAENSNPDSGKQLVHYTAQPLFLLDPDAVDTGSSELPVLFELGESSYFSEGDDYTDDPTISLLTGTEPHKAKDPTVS

[16] = molecular target: T5, Calpain-2 catalytic subunit (Sus scrofa, UniProt P43367); test: pig calpain II inhibitor potency, dose response, biochemical, fluorogenic peptide substrate (AID 1420); type: functional
T5 sequence (P43367 whole entry): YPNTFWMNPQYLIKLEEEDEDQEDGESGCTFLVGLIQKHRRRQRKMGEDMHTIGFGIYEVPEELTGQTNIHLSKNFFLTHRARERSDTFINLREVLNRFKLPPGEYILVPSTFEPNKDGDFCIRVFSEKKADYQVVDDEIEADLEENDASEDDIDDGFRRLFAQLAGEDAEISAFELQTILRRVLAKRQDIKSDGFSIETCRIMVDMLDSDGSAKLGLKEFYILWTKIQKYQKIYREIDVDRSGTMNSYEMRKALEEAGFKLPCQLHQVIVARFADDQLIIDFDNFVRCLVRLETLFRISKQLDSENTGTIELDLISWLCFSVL

[17] = HEp-2 cell cytotoxicity, dose response, cytotoxicity control for RSV inhibitor project, HTS (AID 2410); type: functional; details: human respiratory syncytial virus
[18] = molecular target: T6, DNA repair protein RAD52 homolog (Homo sapiens, UniProt P43351); type: functional, biochemical
T6 sequence (P43351 whole entry): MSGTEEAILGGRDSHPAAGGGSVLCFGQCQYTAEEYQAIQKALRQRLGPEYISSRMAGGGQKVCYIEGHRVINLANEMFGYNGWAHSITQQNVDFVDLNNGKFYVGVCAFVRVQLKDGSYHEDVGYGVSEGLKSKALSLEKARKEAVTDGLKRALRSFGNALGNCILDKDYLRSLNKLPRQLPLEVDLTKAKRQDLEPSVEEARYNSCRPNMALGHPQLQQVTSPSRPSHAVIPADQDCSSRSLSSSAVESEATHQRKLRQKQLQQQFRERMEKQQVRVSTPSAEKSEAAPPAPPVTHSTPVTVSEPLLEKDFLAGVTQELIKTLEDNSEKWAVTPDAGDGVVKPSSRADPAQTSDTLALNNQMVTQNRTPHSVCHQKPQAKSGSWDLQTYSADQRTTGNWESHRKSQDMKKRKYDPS

[19] = ZM109 Env clade C HIV-1 fusion inhibitors, dose response, HeLa effector, CEM target cells, luciferase, cherry-pick (AID 652058); type: functional, cell-based
[20] = P. falciparum Dd2 growth inhibitors, dose response, SYBR Green, cherry-picked samples (AID 1159567); type: functional, cell-based
[21] = HepG2 cell cytotoxicity, dose response, cytotoxicity control, cherry-picked samples (AID 1159577); type: functional, cell-based

Chain of Beta-2 adrenergic receptor (P07550 whole entry): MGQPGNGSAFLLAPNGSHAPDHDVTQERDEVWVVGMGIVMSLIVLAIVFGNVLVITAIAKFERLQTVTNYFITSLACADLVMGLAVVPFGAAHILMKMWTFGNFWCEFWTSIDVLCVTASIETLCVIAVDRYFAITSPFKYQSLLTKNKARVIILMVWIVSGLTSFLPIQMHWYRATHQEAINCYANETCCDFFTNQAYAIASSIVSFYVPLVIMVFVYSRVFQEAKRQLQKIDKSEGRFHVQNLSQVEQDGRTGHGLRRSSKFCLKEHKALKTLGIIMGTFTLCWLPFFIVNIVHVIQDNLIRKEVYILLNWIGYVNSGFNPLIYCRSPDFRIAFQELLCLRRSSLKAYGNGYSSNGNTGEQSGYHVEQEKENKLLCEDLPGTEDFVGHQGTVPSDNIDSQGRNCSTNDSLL
Chain of Paired box protein Pax-8 (Q06710 whole entry): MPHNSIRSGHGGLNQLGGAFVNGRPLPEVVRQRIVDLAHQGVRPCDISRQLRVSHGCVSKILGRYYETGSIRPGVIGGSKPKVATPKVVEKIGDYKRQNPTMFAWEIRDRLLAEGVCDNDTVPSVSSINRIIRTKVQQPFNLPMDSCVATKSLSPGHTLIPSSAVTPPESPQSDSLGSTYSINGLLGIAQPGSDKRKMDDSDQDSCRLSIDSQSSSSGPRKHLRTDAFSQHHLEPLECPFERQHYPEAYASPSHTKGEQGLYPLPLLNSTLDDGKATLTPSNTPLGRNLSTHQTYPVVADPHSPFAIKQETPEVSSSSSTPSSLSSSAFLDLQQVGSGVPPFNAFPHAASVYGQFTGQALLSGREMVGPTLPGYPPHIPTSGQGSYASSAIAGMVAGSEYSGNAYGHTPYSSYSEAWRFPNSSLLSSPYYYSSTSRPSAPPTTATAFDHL
T2 sequence (P11940 whole entry): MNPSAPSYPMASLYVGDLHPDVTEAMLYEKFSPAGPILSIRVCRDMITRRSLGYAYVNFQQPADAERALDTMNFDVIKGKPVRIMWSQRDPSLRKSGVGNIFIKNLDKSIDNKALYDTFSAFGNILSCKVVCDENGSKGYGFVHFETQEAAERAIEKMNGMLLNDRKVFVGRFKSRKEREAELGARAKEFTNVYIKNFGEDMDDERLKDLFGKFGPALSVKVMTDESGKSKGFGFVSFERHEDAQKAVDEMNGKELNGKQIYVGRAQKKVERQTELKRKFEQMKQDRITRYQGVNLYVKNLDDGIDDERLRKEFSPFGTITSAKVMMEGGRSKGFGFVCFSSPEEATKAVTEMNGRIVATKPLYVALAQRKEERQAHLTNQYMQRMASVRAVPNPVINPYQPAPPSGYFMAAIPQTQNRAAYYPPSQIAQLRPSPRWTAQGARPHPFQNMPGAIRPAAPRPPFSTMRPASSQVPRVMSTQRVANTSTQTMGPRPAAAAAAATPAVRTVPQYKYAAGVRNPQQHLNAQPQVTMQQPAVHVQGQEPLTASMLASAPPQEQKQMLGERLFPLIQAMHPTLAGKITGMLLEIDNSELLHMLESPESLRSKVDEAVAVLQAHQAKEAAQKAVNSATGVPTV

COc1ccc([C@H]2/C=C\CN(Cc3ccc(N(C)C)cc3)[C@@H](C)C(=O)N2Cc2ccc(F)cc2)cc1
EC50 [1]: 4360 nM (active)

N#Cc1cc2c(nc1S)CCCCCC2
IC50 [2]: > 50 µM (not active)
IC50 [3]: > 66 µM (inactive)
IC50 [4]: > 66 µM (inactive)

Cn1c2c(c(=O)c3ccccc31)CCCC2
IC50 [5]: 6.99 µM (active)
IC50 [6]: 4.22 µM (active)

COc1ccc(NC(=S)Nc2ccc3nccnc3c2)cc1
IC50 [2]: > 50 µM (not active)

COC(=O)Cn1ccc(N(C)C)c(C#N)c1=O
IC50 [5]: 4.07 µM (active)
IC50 [6]: 2.89 µM (active)

COc1cccc(NC(=O)Nc2nc(-c3ccc(OC)c(OC)c3)cs2)c1
EC50 (BJ [7]): 5.89 µM (active)
EC50 (BJ [8]): 8.03 µM (active)
EC50 (BJ [9]): 9.04 µM (inconclusive)
EC50 [10]: 5.56 µM (active)
AC50 (Paired box protein Pax-8): 7.88 µM (active)
AC50 [11]: 12.3 µM (active)

c1cn(C23CC4CC(CC(C4)C2)C3)cn1
IC50 [5]: 7.43 µM (active)
IC50 [6]: 3.57 µM (active)

Nc1cc(-c2ccccc2)nn1S(=O)(=O)c1ccc(F)cc1
AC50 [12]: 59.6 µM (active)
AC50 [13]: 3.4 µM (active)
AC50 [14]: 3.99 µM (active)

CCCCOc1cccc(C(=O)Nc2ccc(NC(=O)c3cccs3)cc2)c1
EC50 [15]: 9.51 µM (active)
EC50 [1]: 256 nM (active)

CC(=O)Nc1cc(C(=O)OC(C(=O)c2ccccc2)c2ccccc2)ccc1C (stereo not drawn)
IC50 [16]: > 50 µM (not active)
EC50 [1]: 402 nM (active)

COc1ccc(-c2ccc(C(=O)O)o2)c([N+](=O)[O-])c1
IC50 [2]: > 50 µM (not active)

O=C(Nc1cccc(-c2nc3ccccc3s2)c1)c1cccs1
CC50 [17]: 15.4 µM (active)
EC50 [1]: 16900 nM (inactive)

CN(C)CCCNc1nc2cc(-c3cccc(C(F)(F)F)c3)sc2c(=O)n1C
AC50 [18]: 7.9 µM (active)

CCC(=O)c1ccc(OCC(=O)N2CCN(CC(=O)Nc3ccc(C)cc3)CC2)cc1
EC50 [1]: 64.6 nM (active)

Cc1ccccc1NC(=O)c1ccc(C)c(S(=O)(=O)NCc2cccnc2)c1
IC50 [5]: 9.77 µM (active)
IC50 [6]: 5.77 µM (active)

COC(=O)C1(C(=O)OC)C[C@H](c2ccc(OC)cc2)N(Cc2ccccc2OC)[C@@H]1c1cccs1
AC50 [12]: 2.05 µM (active) and 2.55 µM (active)
AC50 [19]: 4.03 µM (active) and 2.19 µM (active)
AC50 [13]: 4.05 µM (active) and 2.64 µM (active)

COC(=O)C1(C(=O)OC)C[C@H](c2ccccc2)N(Cc2ccccc2OC)[C@@H]1c1ccccc1
AC50 [12]: 1.65 µM (active)
AC50 [19]: 1.75 µM (active)
AC50 [13]: 3.26 µM (active)
AC50 [14]: 2.41 µM (active)

CCC(=O)N(C)C[C@@H]1Oc2cc(C#Cc3ccccc3)ccc2S(=O)(=O)N([C@H](C)CO)C[C@H]1C
AC50 [12]: 7.15 µM (active)
AC50 [19]: 1.58 µM (active)
AC50 [14]: 54.8 µM (active)

O=C(Cc1ccccn1)N1CCCCN2[C@@H](CO)[C@@H](c3ccc(-c4ccccc4F)cc3)[C@@H]2C1
AC50 (Paired box protein Pax-8): 57 µM (active)
AC50 [11]: 46.2 µM (active)

NC1(N2SC(S)=C3CCCC=C32)CCCCC1
AC50 [18]: 12.1 µM (active)

C=CC[N@@+]12CC[C@]34c5ccccc5N5/C=C6\C7N(/C=C(\C53)[C@@H](C[C@@H]41)/C(=C/CO)C2)c1ccccc1[C@@]71CC[N@@+]2(CC=C)C/C(=C\CO)[C@@H]6C[C@@H]12 (stereo partly drawn)
AC50 [18]: 16.5 µM (active)

OC[C@@H]1[C@H](c2ccc(C3=CCCCC3)cc2)[C@@H](CNC2CCCC2)N1CC1CC1
AC50 [20]: 1.61 µM (active)
AC50 [21]: 21.9 µM (active)

COc1cccc(S(=O)(=O)Nc2ccc3c(c2)[C@@H]2C[C@H](CC(=O)NCc4ccccc4F)O[C@@H](CO)[C@@H]2O3)c1
AC50 [20]: 5.32 µM (active)
AC50 [21]: > 39 µM (inactive)

CCCN(C)C[C@H]1Oc2ncc(C#Cc3ccc(OC)cc3)cc2C(=O)N([C@@H](C)CO)C[C@H]1C
AC50 [20]: 2.78 µM (active)
AC50 [21]: 28.8 µM (active)

COc1ccc2c3c(n(C)c2c1)[C@@H](CO)N(Cc1ccc(F)cc1)CC31CCN(CC2CC2)CC1
AC50 [20]: 3.48 µM (active)
AC50 [21]: > 39 µM (inactive)
